The text below walks through data of patent US20220380937A1, “IDENTIFICATION OF SPLICING-DERIVED ANTIGENS FOR TREATING CANCER” (THE REGENTS OF THE UNIVERSITY OF CALIFORNIA, priority 2019, published 2022).

In the experiment the test system is CD3+CD8+ T cells. Kind of experiment: MHC class I dextramer-based T-cell recognition assay (flow cytometry of PBMCs/TILs with pMHC complexes). Further details: species or system human. Particulars: for tested healthy donors whose T cells recognized the epitope: three HLA-matched healthy donors tested, PBMCs. Here is the method:
Assays to determine immunogenicity and/or TCR binding can be performed. One such as is the dextramer flow cytometery assay. Generally, custom-made HLA-matched MHC Class I dextramer:peptide (pMHC) complexes are developed or purchased (Immudex, Copenhagen, Denmark). T cells from peripheral blood mononuclear cells (PBMCs) or tumor-infiltrating lymphocytes (TILs) are incubated the pMHC complexes and stained, which are then run through a flow cytometer to determine if the peptide is capable of binding a TCR of a T cell.
Finally, the inventors sought to validate the immunogenicity and T-cell recognition of IRIS-identified candidate TCR targets using an MHC class I dextramer-based assay (12,24). The inventors focused on predicted AS-derived tumor epitopes with strong putative HLA-binding affinity to common HLA types found in at least five of the 22 patients. The inventors selected seven AS-derived tumor-associated epitopes (five HLA-A02:01 and two HLA-A03:01) for dextramer-based T-cell recognition testing (Table 4). […] The inventors obtained customized HLA-matched, fluorescently labeled MEW class I dextramer:peptide (pMHC) complexes for each candidate epitope. The inventors conducted flow cytometry to detect CD8^+ T-cell binding with the pMHC complexes using available peripheral blood mononuclear cells (PBMCs) and/or ex vivo-expanded tumor-infiltrating lymphocytes (TILs). Based on the binding of each AS-derived tumor epitope to a patient's CD3^+CD8^+ T cells, the inventors classified epitope reactivity as ‘positive’ (binding>0.1% of cells), ‘marginal’ (binding 0.01-0.1% of cells), or ‘negative’ (binding<0.01% of cells). […] The inventors analyzed samples from two HLA-A02:01 and four HLA-A03:01 patients, as well as samples from three HLA-A02:01 and three HLA-A03:01 healthy donors (Table 5, Supplementary Data).
Dextramer flow-cytometric analysis of PBMCs and TILs. For each AS-derived peptide selected for validation, custom-made HLA-matched MHC Class I dextramer:peptide (pMHC) complexes were purchased from Immudex (Copenhagen, Denmark). Immudex also provided pMHC complexes for common cytomegalovirus (CMV) epitopes (cat. nos. WB2132 and WC2197) and for a nonhuman epitope (NI3233) as a negative control. Each pMHC complex was purchased with two separate tags for APC or PE fluorescence labeling, to increase specificity to targeted T cells with dual labeling.
To facilitate proper gating of CD8^+ T cells from PBMC and TIL populations, the following panel of antibodies (from BioLegend) was set up: CD3 BV605 (cat. no. 300460), CD8 FITC (cat. no. 344704), CD4 BV421 (cat. no. 317434), CD19 BV421 (cat. no. 302234), CD56 BV421 (cat. no. 362552), and CD14 BV421 (cat. no. 301828). For single-color compensation controls, OneComp eBeads were used (Thermo Fisher Scientific, cat. no. 01-1111-41).
For each set of pMHC complexes, at least 3×10^6 cells were stained according to manufacturer's guidelines. Briefly, cells were thawed in a 37° C. water bath and washed with RPMI and D-PBS (Fisher Scientific, cat. no. MT21031CV) before staining for cell viability with the Zombie Violet Viability Kit (BioLegend, cat. no. 423113). Next, the appropriate amount of each pMHC complex in a staining buffer of D-PBS with 5% fetal bovine serum (Fisher Scientific, cat. no. MT35016CV) was added to each sample. After 10 min, the aforementioned antibody cocktail was added. After a 30-min incubation period, cells were washed twice in the same staining buffer. All samples were tested in a BD LSRII flow cytometer, and data were analyzed with FlowJo (Treestar). For gating, the lymphocyte population was first selected using forward and side scatter, and then the BV421-negative population was gated out (i.e. excluding dead cells and the CD14, CD19, CD56, and CD4 populations) before selecting the CD3^+CD8^+population. […]

Where [1] appears, read: patient LB2867, ex vivo-expanded TILs.

In the case of KIGRLVTRK (listed as Homo sapiens), the “tested healthy donors whose T cells recognized the epitope” value was “one of the three”. For the same sequence, the “recognition by patient T cells” value (GBM patients, PBMCs and/or ex vivo-expanded TILs) was “recognized”. For the setting “four HLA-A03:01 GBM patients tested, PBMCs and/or TILs, at least marginal reactivity = recognized”, the “tested patients whose T cells recognized the epitope” value is on record as “all four tested patients”. Besides, where the note is “patient LB2867, PBMCs”, the “epitope-reactive T cells, % of T cells in PBMCs” value is 0.03%. Also, under setting [1], the “epitope reactivity (recognition) in expanded TIL population” value is reported as “positive (‘positive’ (binding>0.1% of cells))” and the “epitope-reactive T cells, % of T cells in TILs” value was 1.69%.
As for YAIVWVNGV (listed as Homo sapiens), the “tested healthy donors whose T cells recognized the epitope” value is listed as “only one healthy donor”. For the same sequence, under “the one recognizing healthy donor of three tested”, the “reactive cells, % of CD3+CD8+ T cells” value amounted to 0.013%.
